What was measured:
[1] = system: SiaT9 (α-2,3-sialyltransferase); test: In vitro sialyltransferase activity assay with acceptor substrates, product detected by thin layer chromatography; type: biochemical, Vibrio sp. JT-FAJ-16; set-up: key to Formation of sialylated reaction product, SiaT9: +: A sialylated reaction product was detectable.; −: A sialylated reaction product was not detectable; settings: TLC; for Formation of sialylated reaction product, SiaT9: E. coli protein extract, 10 mM CMP-Neu5Ac, 5 to 20 mM acceptor substrate, 16 hours; for Sialylation of acceptor substrate by SiaT9: in vitro assay, summary of Table 3
Method: (§1) The E. coli strains harboring the plasmids for siaT9 (α-2,3-sialyltransferase) and siaT18 (α-2,6-sialyltransferase) expression were grown at 30° C. in 100 ml shake flasks filled with 20 ml of 2YT medium supplemented with ampicillin 100 μg ml^−1. When the cultures reached an OD600 of 0.1 to 0.3, gene expression was induced by addition of 0.3 mM IPTG and the incubation was continued for 12 to 16 hours. Cells were harvested by centrifugation and mechanically disrupted in a defined volume of 50 mM Tris-HCl pH7.5 using glass beads. The protein extract was kept on ice until the assay started. The in vitro assay was carried out in a total volume of 25 μl including 50 mM Tris-HCl PH7.5, 5 mM MgCl2, 10 mM CMP-Neu5Ac and 5 to 20 mM of the appropriate acceptor substrates. The assay started with the addition of 3 μl protein extract and continued for 16 hours. Formation of sialylated oligosaccharides resulting from the activity of the sialyltransferases was determined by thin layer chromatography.
(§2) Therefore, samples were applied on Silica Gel 60 F254 (Merck KGaA, Darmstadt, Germany)-plates. A mixture of butanol:acetone:acetic acid:H2O (35/35/7/23 (v/v/v/v)) was used as mobile phase. For detection of the separated substances, the TLC plate was soaked with thymol reagent (0.5 g thymol solved in 95 ml ethanol, 5 ml sulfuric acid added) and heated. Sialylated reaction products run slower than their acceptor substrates.
(§3) Table 3: In vitro analyses determining sialyltransferase activities of two exemplary sialyltransferases depending on the supplied acceptor substrate. The formation of sialylated saccharides was determined by thin layer chromatography. (+) A sialylated reaction product was detectable. (−) A sialylated reaction product was not detectable.

[2] = system: SiaT18 (α-2,6-sialyltransferase); test: as above; type: biochemical, Photobacterium leiognathi JT-SHIZ-119; set-up: key to Formation of sialylated reaction product, SiaT18: +: A sialylated reaction product was detectable.; −: A sialylated reaction product was not detectable; settings: TLC; for Formation of sialylated reaction product, SiaT18: E. coli protein extract, 10 mM CMP-Neu5Ac, 5 to 20 mM acceptor substrate, 16 hours; for Sialylation of acceptor substrate by SiaT18: in vitro assay, summary of Table 3
Method: as §1, §2, §3

Compound	Formation of sialylated reaction product, SiaT9 [1]	Sialylation of acceptor substrate by SiaT9 [1]	Formation of sialylated reaction product, SiaT18 [2]	Sialylation of acceptor substrate by SiaT18 [2]
O=C[C@H](O)[C@@H](O)[C@@H](O)[C@H](O)CO [Galactose]	+	capable to sialylate	+	capable to sialylate
CC(=O)N[C@H]1[C@H](O[C@H]2[C@@H](O)[C@@H](CO)O[C@@H](O[C@H]3[C@H](O)[C@@H](O)C(O)O[C@@H]3CO)[C@@H]2O)O[C@H](CO)[C@@H](O)[C@@H]1O[C@@H]1O[C@H](CO)[C@H](O)[C@H](O)[C@H]1O (stereo partly drawn) [Lacto-N-tetraose]	+		+	
OC[C@H]1O[C@@H](O[C@H]2[C@H](O)[C@@H](O)C(O)O[C@@H]2CO)[C@H](O)[C@@H](O)[C@H]1O (stereo partly drawn) [Lactose]	+		+	
OC[C@H]1O[C@@](CO)(O[C@H]2O[C@H](CO)[C@@H](O)[C@H](O)[C@H]2O)[C@@H](O)[C@@H]1O [Sucrose]	−	No sialylated oligosaccharide was detectable	−	No sialylated oligosaccharide was detectable

Source: US12600997B2, “Fermentative production of sialylated saccharides” (priority 2018, dated 2026)
